Measured values taken from patent US7445764B1, “Carrier-drug conjugate” (priority 1999, dated 2008).

Assays:
[1] = target: HSA-Cys^34-2 (conjugate of DTT-treated human serum albumin with doxorubicin-maleinimide-peptide derivative 2) (UniProt P02768)
[2] = system: RENCA, renal cell carcinoma; settings: female, Balb/c, mouse, in vivo
Description: (§1) Animals: Balb/c mice, female; tumor: RENCA, renal cell carcinoma; therapy: day (d) 10, 14, 18, 21 intravenous (i.v.); end of trial: d 25.
(§2) The dose is relative to the quantity of doxorubicin present.

[3] = system: RENCA, renal cell carcinoma; assay: RENCA (renal cell carcinoma) model, antitumoral action at approximately equitoxic dose; settings: RENCA in Balb/c mice
Description: as §1, §2

Chain of HSA-Cys^34-2 (conjugate of DTT-treated human serum albumin with doxorubicin-maleinimide-peptide derivative 2) (P02768 whole entry, looked up, tested part not stated): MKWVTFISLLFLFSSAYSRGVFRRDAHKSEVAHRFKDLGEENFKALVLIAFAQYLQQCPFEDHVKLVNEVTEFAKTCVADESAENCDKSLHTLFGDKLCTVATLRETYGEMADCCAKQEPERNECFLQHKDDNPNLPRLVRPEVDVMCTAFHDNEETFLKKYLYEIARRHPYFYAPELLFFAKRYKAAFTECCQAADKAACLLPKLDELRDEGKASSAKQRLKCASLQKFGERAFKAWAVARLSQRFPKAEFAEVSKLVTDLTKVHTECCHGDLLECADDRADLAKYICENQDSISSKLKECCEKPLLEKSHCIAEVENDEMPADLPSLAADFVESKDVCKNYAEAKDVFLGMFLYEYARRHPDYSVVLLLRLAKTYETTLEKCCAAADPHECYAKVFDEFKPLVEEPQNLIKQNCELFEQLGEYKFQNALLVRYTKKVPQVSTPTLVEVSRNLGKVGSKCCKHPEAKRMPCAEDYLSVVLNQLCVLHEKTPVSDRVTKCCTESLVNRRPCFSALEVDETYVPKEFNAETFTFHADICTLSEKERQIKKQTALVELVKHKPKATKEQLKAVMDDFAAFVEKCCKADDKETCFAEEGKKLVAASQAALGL

Row | Molecule | liberation of DOXO-Gln-Gly-Ala-Ile due to cleavage with MMP 9 (HPLC gel chromatography, t=0 against t=30 min) [1] | Mortality (d) [2] | Visible renal tumors ([3]; FIG. 3A) | Number of pulmonary metastases, average ([3]; FIG. 3B) [metastases per mouse] | Complete remission ([3]; i.v. d 10, 14, 18, 21, end of trial d 25, approximately equitoxic doses)
1 | matrix metalloprotease MMP 9 (trypsine/aprotinine-activated, from Calbiochem, Germany) | The liberation of DOXO-Gln-Gly-Ala-Ile due to cleavage with MMP 9 was confirmed by HPLC gel chromatography |  |  |  | 
2 | COc1cccc2c1C(=O)c1c(O)c3c(c(O)c1C2=O)C[C@@](O)(C(=O)CO)C[C@@H]3O[C@H]1C[C@H](N)[C@H](O)[C@H](C)O1 [Doxorubicin, doxorubicin] |  | 1 | plainly visible renal tumors were observed in all animals | ~100 | no complete remissions
